# Assay results published in patent US8563555B2, “Pharmaceutical compositions containing a crystalline form of posaconazole” (Sandoz AG, priority 2008, dated 2013).
# Several values for one entry are separate records, joined by “and”; a condition that tells them apart may be missing. Equal entries are not always repeated.
# How the values were obtained:
# [1] = Particle size distribution (Malvern, laser diffraction) in suspension; type: physicochemical; conditions: for Mean particle size (D4,3-value) / Median particle size (d (0.5)-value): non-micronized form, in suspension, after 5 min ultrasonic treatment
# Procedure: Crystalline form Y in a non-micronized form as obtained by Example 1 was used to prepare 25 ml of a suspension as follows:
# The suspension was prepared analogously to the method described in Example 6 up to and including the addition of glycerol and liquid glucose. Subsequently, titanium oxide was added under mixing with a suitable homogenizer, followed by the addition of the cherry flavour and of the remaining portion of 56% of the final amount of purified water under mixing until a uniform suspension was obtained.
# 25 ml of a similar suspension, but without cherry flavour and using 12.148 g of purified water, was prepared analoguously using non-micronized crystalline form I of posaconazole.
# The particle size distribution (Malvern) was measured according to the USP <429> and EP 2.9.31. based on the diffraction of laser by particles using a Mastersizer 2000S liquid dispersion system. The particle size measurement was started after ultrasonic treatment of the sample for 5 min.
# [2] = Specific surface measurement, BET method; type: physicochemical; conditions: for Specific Surface: nitrogen at 77° K, non-micronized
# Procedure: Specific surface measurement was performed with the equipment NOVA 2000 as commercially available from Quantachrome Instruments using the BET method and Nitrogen as the absorbed gas at 77° K (i.e. −196.15° C.) as described e.g. by Medema J, Campagne A.: A Simple Method to Determine Cumulative Surface-Area Distributions of Porous Solids; Journal of Catalysis, Volume 8, Issue 2, pp. 120, 1967.
# [3] = Stability of form Y within a pharmaceutical formulation (XRPD); type: physicochemical; conditions: suspension stored at room temperature for 7 weeks
# Procedure: 25 ml of a suspension containing form Y were prepared as follows:
# 40% of the final amount of Polysorbat 80 and 40% of the final amount of simethicon were mixed and dissolved and/or dispersed in about 12% of the final amount of purified water and homogenized with Ultra Turrax (30 seconds; 27,000 rpm). Subsequently, 1 g of form Y of posaconazole were suspended or dispersed in this mixture under homogenization by Ultra Turrax (27,000 rpm, 2 minutes). The remaining 60% of Polysorbat 80 and of simethicon and 32% of the final amount of the purified water were added and mixed followed by the addition of sodium benzoate, sodium citrate dehydrate and citric acid monohydrate. After further mixing, xanthan gum was added to the mixture under stirring, followed by a 30 minutes phase of hydratization without mixing. Subsequently, glycerol and liquid glucose and of the remaining portion of 56% of the final amount of purified water were added under mixing until a uniform suspension was obtained.
# This suspension was stored at room temperature for 7 weeks. A sample of approximately 1 g of the suspension was dried under vacuum over night at room temperature. […]
# [4] = Dissolution from suspension, USP <711> apparatus II; type: physicochemical; conditions: suspension of Example 7, paddle 25 rpm, 0.3% SLS aqueous solution
# Procedure: Non-micronized form Y and non-micronized form I were incorporated into formulations having compositions and being prepared according to Example 7.
# Dissolution of Form Y and Form I from those formulations was tested according to USP 32 (2009) method <711> (USP apparatus II (Paddle); 25 rpm; dissolution medium: 0.3% SLS aqueous solution). Posaconzole concentrations were determined with an online photometer (UV absorption at 260 nm).
# [5] = Solid state stability of form Y (HPLC assay, polymorphic form); type: physicochemical
# Procedure: HPLC assay was performed by applying the following conditions: • Column: ZORBAX XDB-C18 Rapid Resolution HT, 1.8 μm, 50×4.6 mm (Agilent Technologies) • Eluent A: Dilute 2 ml of acetic acid (99-100%) with water and fill up to 1000 ml with water. Adjust pH to 6.5 with 2.5% ammonia. • Eluent B: water/acetonitrile=50/50 (v/v) • Flow rate: 0.8 ml/min • Temperature: 40° C. • Detection: UV at 260 nm • Gradient:
# The solid state stability of form Y was determined by storing approximately 1.0 g of the material in a glass bottle at a) 60° C./100% Relative Humidity (RH), open exposure, for 24 hours and b) at 140° C., closed, for 3 days.
# The material was assayed by HPLC for final content and degradation products.
# [6] = Equilibrium solubility method in water; type: physicochemical
# Procedure: The solubility of form Y was determined by the equilibrium solubility method, which employed a saturated solution of form Y, obtained by stirring 250 mg form Y in 6 ml water over night. The sample was filtered through a 0.45 μm membrane filter and the concentration of form Y in the filtrate was measured using a Perkin Elmer Lambda 35 UV/VIS spectrophotometer (λ=260 nm).
# [7] = Stability of an aqueous suspension of form Y; type: physicochemical; conditions: 120 mg in 3 ml water, room temperature, 4 days
# Procedure: 120 mg form Y were suspended in 3 ml water and the suspension was stirred at room temperature.
# [8] = Moisture sorption isotherm; type: physicochemical; conditions: 0-95% RH, 25° C.
# Procedure: The moisture sorption isotherm was recorded with a SPS-11 moisture sorption analyzer (MD Mess-technik, Ulm, D). The measurement cycle was started at 0% relative humidity (RH), increased in 10% steps up to 90% RH and in a 5% step up to 95% RH. The equilibrium condition for each step was set to a constant mass ±0.003% over 49 min. The temperature was 25±0.1° C.
# [9] = cited from earlier work
# [10] = 60° C./100% RH, open exposure, 24 hours
# [11] = listed as crystalline form Y of posaconazole
smiles,measurement,setting,value
"CC[C@@H]([C@H](C)O)n1ncn(-c2ccc(N3CCN(c4ccc(OC[C@@H]5CO[C@@](Cn6cncn6)(c6ccc(F)cc6F)C5)cc4)CC3)cc2)c1=O [Crystalline Form I, posaconazole]","Mean particle size (D4,3-value)",[1],35.1 μm
same,Median particle size (d (0.5)-value),[1],31.3 μm
same,Specific Surface,[2]; listed as Crystalline Form I of posaconazole,1.5 m^2/g and 1.6 m^2/g
"CC[C@@H]([C@H](C)O)n1ncn(-c2ccc(N3CCN(c4ccc(OC[C@@H]5CO[C@@](Cn6cncn6)(c6ccc(F)cc6F)C5)cc4)CC3)cc2)c1=O [Crystalline Form Y, posaconazole]",polymorphic conversion in suspension (XRPD),[3],no conversion to another polymorphic form had occurred
same,dissolution compared to non-micronized form I,[4],clearly faster dissolution
same,HPLC assay (% initial),[5]; [10],99.9%
same,degradation,[5]; [10],No significant degradation observed
same,HPLC assay (% initial),"[5]; 140° C., closed, 3 days",99.9%
same,degradation,"[5]; 140° C., closed, 3 days",No significant degradation observed
same,polymorphic conversion,"[5]; 24 hours at 100% RH, 60° C.",not converted into another polymorphic form
same,fold smaller mean particle size compared to non-micronized form I,[1]; non-micronized,about 4 fold
same,fold smaller median particle size compared to non-micronized form I,[1]; non-micronized,about 5 fold
same,"Mean particle size (D4,3-value)",[1],9.9 μm
same,Median particle size (d (0.5)-value),[1],6.0 μm
same,"Mean particle size (D4,3-value)",[1]; [11],about 10±2 μm
same,Median particle size (d (0.5)-value),[1]; [11],about 6±2 μm
same,water solubility of form Y relative to form I (times higher),[6],about two
same,solubility,"[6]; thermodynamic from solid, saturated solution stirred over night, 0.45 μm filtrate, UV 260 nm",1.5 µg/mL
same,physicochemical properties of the solid after stirring in water,[7],the same as the physicochemical properties of form Y obtained in Example 1
same,fold larger specific area compared to crystalline form I,[2],about 2.4 fold
same,Specific Surface,[2]; listed as Crystalline Form Y of posaconazole,3.6 m^2/g and 3.7 m^2/g
same,Specific Surface,[2]; [11],about 4±1 m^2/g
same,water uptake,[8],≤ 0.4%
"CC[C@@H]([C@H](C)O)n1ncn(-c2ccc(N3CCN(c4ccc(OC[C@@H]5CO[C@@](Cn6cncn6)(c6ccc(F)cc6F)C5)cc4)CC3)cc2)c1=O [posaconazole, 2,5-anhydro-1,3,4-trideoxy-2-C-(2,4-difluorophenyl)-4-[[4-[4-[4-[1-[(1S,2S)-1-ethyl-2-hydroxypropyl]-1,5-dihydro-5-oxo-4H-1,2,4-triazol-4-yl]phenyl]-1-piperazinyl]phenoxy]methyl]-1-(1H-1,2,4-triazol-1-yl)-D-threopentitol]",log P,[9],> 3
